Results from ChEMBL document CHEMBL4823245, “Development of an In Silico Prediction Model for P-glycoprotein Efflux Potential in Brain Capillary Endothelial Cells toward the Prediction of Brain Penetration” (J Med Chem, 2021).

What was measured:
[1] = Unbound plasma concentration in P-gp knock out Sprague-Dawley rat at 5 mg/ml/kg, po measured upto 4 hrs by LC-MS analysis
[2] = Ratio of drug concentration in brain to plasma of P-gp knock out Sprague-Dawley rat
[3] = Unbound brain-to-plasma concentration ratio in P-gp knock out Sprague-Dawley rat
[4] = Unbound brain concentration in P-gp knock out Sprague-Dawley rat at 5 mg/ml/kg, po measured upto 4 hrs by LC-MS analysis; conditions: in vivo

CC(C)CN(C[C@@H](O)[C@H](Cc1ccccc1)NC(=O)O[C@H]1CCOC1)S(=O)(=O)c1ccc(N)cc1
fraction unbound at 4 h ([1]; plasma): 0.129

Cc1nc2n(c(=O)c1CCN1CCC(c3noc4cc(F)ccc34)CC1)CCCC2O (configuration not stated) [PALIPERIDONE]
fraction unbound at 4 h ([1]; plasma): 0.047 | Kp ([2]; brain/plasma): 0.867 | Kp uu ([3]; brain/plasma): 0.443

O=C(O)CCCN1CCC(OC(c2ccc(Cl)cc2)c2ccccn2)CC1 (configuration not stated)
fraction unbound at 4 h ([1]; plasma): 0.642 | Kp ([2]; brain/plasma): 0.031 | Kp uu ([3]; brain/plasma): 0.018

CC[C@H]1OC(=O)[C@H](C)[C@@H](O[C@H]2C[C@@](C)(OC)[C@@H](O)[C@H](C)O2)[C@H](C)[C@@H](O[C@@H]2O[C@H](C)C[C@H](N(C)C)[C@H]2O)[C@](C)(OC)C[C@@H](C)C(=O)[C@H](C)[C@@H](O)[C@]1(C)O [CLARITHROMYCIN]
Fu [4]: 0.113 | fraction unbound at 4 h ([1]; in vivo): 0.377 | Kp ([2]; brain): 1.96 | Kp uu ([3]; brain): 0.014

CC(C)N(CCC(C(N)=O)(c1ccccc1)c1ccccn1)C(C)C (configuration not stated) [DISOPYRAMIDE]
Fu [4]: 0.491 | fraction unbound at 4 h ([1]; in vivo): 0.669 | Kp ([2]; brain): 1.02 | Kp uu ([3]; brain): 0.036

C[C@@H]1C[C@H]2[C@@H]3CCC4=CC(=O)C=C[C@]4(C)[C@@]3(F)[C@@H](O)C[C@]2(C)[C@@]1(O)C(=O)CO [DEXAMETHASONE]
fraction unbound at 4 h ([1]; plasma): 0.159

Cc1c(O)cccc1C(=O)N[C@@H](CSc1ccccc1)[C@H](O)CN1C[C@H]2CCCC[C@H]2C[C@H]1C(=O)NC(C)(C)C
fraction unbound at 4 h ([1]; plasma): 0.003 | Kp uu ([3]; brain/plasma): 0.007

Cc1nc2n(c(=O)c1CCN1CCC(c3noc4cc(F)ccc34)CC1)CCCC2 [RISPERIDONE]
Fu [4]: 0.12 | Fu ([1]; in vivo, 4 h): 0.033 | Kp ([2]; brain): 1.56 | Kp uu ([3]; brain/plasma): 1.38

CCN(CC)CCNC(=O)c1c(C)[nH]c(/C=C2\C(=O)Nc3ccc(F)cc32)c1C [SUNITINIB]
fraction unbound at 4 h ([1]; plasma): 0.007 | Kp ([2]; brain/plasma): 0.481 | Kp uu ([3]; brain/plasma): 0.414

CC[C@H](CO)Nc1nc(NCc2ccccc2)c2ncn(C(C)C)c2n1 [SELICICLIB]
fraction unbound at 4 h ([1]; plasma): 0.048 | Kp ([2]; brain/plasma): 1.26 | Kp uu ([3]; brain/plasma): 0.205

Cc1nc(Nc2ncc(C(=O)Nc3c(C)cccc3Cl)s2)cc(N2CCN(CCO)CC2)n1.O [DASATINIB]
Fu [4]: 0.013 | fraction unbound at 4 h ([1]; plasma): 0.026 | Kp ([2]; brain): 0.061 | Kp uu ([3]; brain): 0.016

CC(C)(C)NC(=O)[C@@H]1C[C@@H]2CCCC[C@@H]2CN1C[C@@H](O)[C@H](Cc1ccccc1)NC(=O)[C@H](CC(N)=O)NC(=O)c1ccc2ccccc2n1
Fu [4]: 0.006 | fraction unbound at 4 h ([1]; plasma): 0.005 | Kp ([2]; brain): 0.067 | Kp uu ([3]; brain): 0.014

C[C@@H](Oc1cc(-c2cnn(C3CCNCC3)c2)cnc1N)c1c(Cl)ccc(F)c1Cl [CRIZOTINIB]
fraction unbound at 4 h ([1]; plasma): 0.03 | Kp ([2]; brain/plasma): 5.55 | Kp uu ([3]; brain/plasma): 0.017

CN1CC[C@H](c2c(O)cc(O)c3c(=O)cc(-c4ccccc4Cl)oc23)[C@H](O)C1 [ALVOCIDIB]
fraction unbound at 4 h ([1]; plasma): 0.051 | Kp ([2]; brain/plasma): 0.451 | Kp uu ([3]; brain/plasma): 0.234

Cc1ccc(NC(=O)c2ccc(CN3CCN(C)CC3)cc2)cc1Nc1nccc(-c2cccnc2)n1 [IMATINIB]
Kp uu ([3]; brain/plasma): 0.041

COc1cc2nc(N3CCN(C(=O)c4ccco4)CC3)nc(N)c2cc1OC [PRAZOSIN]
fraction unbound at 4 h ([1]; plasma): 0.264 | Kp ([2]; brain/plasma): 0.247 | Kp uu ([3]; brain/plasma): 0.164

Clc1ccc2c(c1)CCc1cccnc1C2=C1CCNCC1 [DESLORATADINE]
fraction unbound at 4 h ([1]; plasma): 0.19 | Kp uu ([3]; brain/plasma): 0.061

C=C[C@H]1C[N@@]2CC[C@H]1C[C@@H]2[C@@H](O)c1ccnc2ccc(OC)cc12 [QUINIDINE]
Kp uu ([3]; brain): 0.065

CCN(CC)CCNC(=O)c1cc(Cl)c(N)cc1OC [METOCLOPRAMIDE]
Fu [4]: 0.817 | fraction unbound at 4 h ([1]; in vivo): 0.677 | Kp ([2]; brain): 5.05 | Kp uu ([3]; brain): 2.45

CN(C)CCc1c[nH]c2ccc(C[C@H]3COC(=O)N3)cc12 [ZOLMITRIPTAN]
Fu [4]: 1 | fraction unbound at 4 h ([1]; in vivo): 0.942 | Kp ([2]; brain): 0.043 | Kp uu ([3]; brain): 0.035

O=c1[nH]c2ccccc2n1CCCN1CCC(n2c(=O)[nH]c3cc(Cl)ccc32)CC1 [DOMPERIDONE]
Fu [4]: 0.017 | fraction unbound at 4 h ([1]; in vivo): 0.029

C[C@H]1O[C@@H](O[C@H]2[C@@H](O)C[C@H](O[C@H]3[C@@H](O)C[C@H](O[C@H]4CC[C@@]5(C)[C@H](CC[C@@H]6[C@@H]5C[C@@H](O)[C@]5(C)[C@@H](C7=CC(=O)OC7)CC[C@]65O)C4)O[C@@H]3C)O[C@@H]2C)C[C@H](O)[C@@H]1O [DIGOXIN]
fraction unbound at 4 h ([1]; in vivo): 0.583

COc1cc([C@@H]2c3cc4c(cc3[C@@H](O[C@@H]3O[C@@H]5CO[C@@H](C)O[C@H]5[C@H](O)[C@H]3O)[C@H]3COC(=O)[C@H]23)OCO4)cc(OC)c1O [ETOPOSIDE]
Fu [4]: 0.539 | fraction unbound at 4 h ([1]; in vivo): 0.357 | Kp ([2]; brain): 0.037 | Kp uu ([3]; brain): 0.024

COc1ccc(CCN2CCC(Nc3nc4ccccc4n3Cc3ccc(F)cc3)CC2)cc1 [ASTEMIZOLE]
Fu [4]: 0.004 | fraction unbound at 4 h ([1]; in vivo): 0.011 | Kp ([2]; brain): 38.9 | Kp uu ([3]; brain): 0.577

COc1ccc2c(c1)c(CC(=O)O)c(C)n2C(=O)c1ccc(Cl)cc1 [INDOMETHACIN]
Fu [4]: 0.048 | fraction unbound at 4 h ([1]; plasma): 0.008 | Kp ([2]; brain): 0.009 | Kp uu ([3]; brain): 0.074
